Laboratory results published in patent US6683201B2, “Analine derivatives as OSC inhibitors” (Hoffmann-La Roche Inc., priority 2000, dated 2004).

Compound: CN(C)CCCCOc1ccc(N(C)S(=O)(=O)c2ccc(C(F)(F)F)cc2)cc1 [Example 14.1, N-[4-(4-Dimethylamino-butoxy)-phenyl]-N-methyl-4-trifluoromethyl-benzenesulfonamide]
- melting point: 151 to 153 °C
